Values of other authors as cited in publication PMC8230491 (Pharmaceuticals, 2021).

Conditions: KET COOH; protonated LYS γ-NH2; no reference given

NCCCC[C@H](N)C(=O)O [LYS, lysine]
pKa: 10.29
